These results are taken from DBAASP.

Holding throughout (test): ≥ marks a high value that may be exact or a test limit, other limits are often not marked, values filed in µg/mL are converted to µM
Assay [1] has as its system Bacillus subtilis ATCC 6633.
In assay [2] the test system is Escherichia coli ATCC 25922.
Assay [3] has as its system Pseudomonas aeruginosa ATCC 27853.
Assay [4] concerns Saccharomyces cerevisiae CGMCC 2.3973.
Assay [5] relates to Staphylococcus aureus ATCC 25923.
For assay [6], the system named is Aspergillus brasiliensis ATCC 16404.
In assay [7] the test system is Candida albicans ATCC 10231.
The test system of assay [8] is Enterococcus faecalis ATCC 29212.
Assay [9] concerns Staphylococcus aureus ATCC 29213.
The subject of assay [10] is Bacillus cereus ATCC 10876.
Assay [11] has as its system Salmonella enterica subsp. enterica serovar Typhimurium ATCC 14028.
Assay [12] deals with Streptococcus iniae KCTC 3657.
Assay [13] relates to Escherichia coli D31.
For assay [14], the system named is Klebsiella pneumoniae ATCC 700603.
The subject of assay [15] is Pseudomonas aeruginosa ATCC 10145.
The test system of assay [16] is Staphylococcus aureus ATCC 27660.
Assay [17] relates to Bacillus subtilis KCTC 3068.
In assay [18] the test system is Enterococcus faecium ATCC 51559.
Assay [19] has as its system Escherichia coli KCTC 1682.
Assay [20] deals with Pseudomonas aeruginosa CCARM 2095.
The test system of assay [21] is Pseudomonas aeruginosa CCARM 2109.
Assay [22] deals with Pseudomonas aeruginosa KCTC 1637.
The test system of assay [23] is Salmonella typhimurium KCTC 1926.
In assay [24] the test system is Staphylococcus aureus CCARM 3089.
Assay [25] has as its system Staphylococcus aureus CCARM 3090.
In assay [26] the test system is Staphylococcus aureus CCARM 3095.
Assay [27] deals with Staphylococcus epidermidis KCTC 1917.
Assay [28] deals with Acinetobacter baumannii ATCC 19606.
For assay [29], the system named is Escherichia coli BW25113 ΔsbmA.
Assay [30] concerns Escherichia coli BW25113.
For assay [31], the system named is Erwinia amylovora PMV 6076.
The test system of assay [32] is Pseudomonas syringae pv. actinidiae Psa3700.1.1.
The test system of assay [33] is Pseudomonas syringae pv. syringae EPS 94.
Assay [34] concerns Xanthomonas arboricola pv. pruni CFBP 5563.
Assay [35] deals with Xanthomonas campestris pv. Vesicatoria 2133-2.
Assay [36] has as its system Xanthomonas fragariae Xf349-9A.

SMILES strings stand for the structures. In brackets after ≈: the same amount, converted by molar mass. Several values for one entry are separate records, joined by “and”; a condition that tells them apart may be missing. Equal entries are not always repeated.

As for `CC[C@H](C)[C@H](NC(=O)CNC(=O)[C@@H](NC(=O)[C@H](CCCCN)NC(=O)[C@@H](NC(=O)[C@H](CCCCN)NC(=O)[C@H](CCCCN)NC(=O)[C@H](CC(=O)O)NC(=O)CNC(=O)[C@H](C)N)[C@@H](C)CC)[C@@H](C)CC)C(=O)N[C@@H](CC(N)=O)C(=O)NCC(=O)N[C@@H](Cc1ccccc1)C(=O)NCC(=O)N[C@@H](CCCN=C(N)N)C(=O)N[C@H](C(=O)NCC(=O)N[C@@H](CCCN=C(N)N)C(=O)N[C@@H](CC(C)C)C(=O)O)[C@@H](C)CC` [AGDKKIKIGINGFGRIGRL], the MIC in [1] was no less than 254 µM; in [2], 31.8 µM (≈ 64 µg/mL); in [3] it was greater than 254 µM; in assay [4], no less than 254 µM; in [5] it was 254 µM (≈ 512 µg/mL).

Turning to `CC[C@H](C)[C@H](NC(=O)[C@H](CCCCN)NC(=O)CNC(=O)[C@@H]1CCCN1C(=O)[C@H](Cc1cnc[nH]1)NC(=O)[C@H](CC(C)C)NC(=O)[C@H](CC(C)C)NC(=O)[C@H](Cc1ccc(O)cc1)NC(=O)[C@H](CO)NC(=O)CNC(=O)[C@H](Cc1ccc(O)cc1)NC(=O)[C@H](CC(C)C)NC(=O)[C@H](CO)NC(=O)[C@@H](N)CS)C(=O)N[C@@H](CO)C(=O)N[C@@H](Cc1ccc(O)cc1)C(=O)N[C@@H](CO)C(=O)N[C@@H](CC(C)C)C(=O)N[C@@H](Cc1cnc[nH]1)C(=O)N[C@@H](CS)C(=O)N[C@@H](CO)C(=O)N[C@@H](CCCN=C(N)N)C(=O)O` [CSLYGSYLLHPGKISYSLHCSR], the MIC in [6] was no less than 64 µM; in assay [7], 32 µM (≈ 79.5 µg/mL); in [8], 16 µM (≈ 39.8 µg/mL); in [2], 16 µM (≈ 39.8 µg/mL); in [3], 64 µM (≈ 159 µg/mL); in assay [9], 32 µM (≈ 79.5 µg/mL).

Take `CSCC[C@H](NC(=O)[C@H](Cc1ccccc1)NC(=O)[C@H](CCCCN)NC(=O)[C@H](CCCN=C(N)N)NC(=O)[C@H](Cc1ccccc1)NC(=O)CNC(=O)[C@H](CC(N)=O)NC(=O)[C@H](CCCN=C(N)N)NC(=O)[C@H](CCCCN)NC(=O)[C@@H](NC(=O)[C@H](CCCN=C(N)N)NC(=O)[C@@H](N)Cc1cnc[nH]1)C(C)C)C(=O)N[C@@H](CCCN=C(N)N)C(=O)N[C@@H](CCCN=C(N)N)C(=O)N[C@@H](CC(C)C)C(=O)N[C@@H](CCCCN)C(=O)N[C@@H](CCCCN)C(=O)N[C@@H](Cc1ccccc1)C(=O)N[C@@H](Cc1ccccc1)C(=O)N[C@@H](C)C(=O)NCC(=O)NCC(=O)O` [HRVKRNGFRKFMRRLKKFFAGG]: the MIC in [10] was 11.7 µM (≈ 32 µg/mL); in [2] it was 1.1 µM (≈ 3 µg/mL); in [3], 2.92 µM (≈ 8 µg/mL); in [11], 0.731 µM (≈ 2 µg/mL); in [9] it was greater than 46.8 µM; in assay [12] it was 11.7 µM (≈ 32 µg/mL).

For the compound `CC[C@H](C)[C@H](NC(=O)CNC(=O)[C@H](CCCCN)NC(=O)[C@H](Cc1ccccc1)NC(=O)[C@H](CC(C)C)NC(=O)[C@H](CCCCN)NC(=O)[C@H](CCCCN)NC(=O)[C@H](C)NC(=O)[C@H](CCCCN)NC(=O)[C@H](CCCCN)NC(=O)[C@H](Cc1c[nH]c2ccccc12)NC(=O)CNC(=O)[C@H](CCCCN)NC(=O)[C@H](C)NC(=O)[C@H](Cc1ccccc1)NC(=O)[C@@H](NC(=O)[C@H](CCCCN)NC(=O)[C@@H](NC(=O)[C@H](CC(C)C)NC(=O)[C@H](CCCCN)NC(=O)[C@@H](N)CCCCN)[C@@H](C)CC)C(C)C)C(=O)NCC(=O)O` [KKLIKVFAKGWKKAKKLFKGIG], the MIC in assay [13] came out at 0.94 µM (≈ 2.37 µg/mL); in assay [14], 1.88 µM (≈ 4.73 µg/mL); in assay [15], 1.88 µM (≈ 4.73 µg/mL); in assay [16], 0.47 µM (≈ 1.18 µg/mL).

`CC[C@H](C)[C@H](NC(=O)[C@H](Cc1ccccc1)NC(=O)[C@H](CCCN=C(N)N)NC(=O)[C@@H](N)CCCCN)C(=O)N[C@@H](CCCCN)C(=O)N[C@@H](Cc1c[nH]c2ccccc12)C(=O)N[C@@H](Cc1ccc(O)cc1)C(=O)N[C@@H](CCCCN)C(=O)N[C@@H](C)C(=O)N[C@@H](Cc1c[nH]c2ccccc12)C(=O)N[C@@H](CC(N)=O)C(=O)N[C@@H](CCCCN)C(=O)N[C@@H](CCCCN)C(=O)N[C@@H](Cc1c[nH]c2ccccc12)C(=O)N[C@@H](CCCN=C(N)N)C(=O)N[C@@H](CCCCN)C(=O)N[C@@H](Cc1ccc(O)cc1)C(N)=O` [KRFIKWYKAWNKKWRKY]: the MIC is 8 µM (≈ 19.4 µg/mL) in [17]; 4 µM (≈ 9.72 µg/mL) in assay [18]; 4 µM and 8 µM in assay [19]; 4 µM (≈ 9.72 µg/mL) in assay [20]; 8 µM (≈ 19.4 µg/mL) in assay [21]; 2 µM (≈ 4.86 µg/mL) in assay [22]. The MIC in [23] was 2 µM (≈ 4.86 µg/mL); in assay [24] it was 2 µM (≈ 4.86 µg/mL); in assay [25], 2 µM (≈ 4.86 µg/mL); in [26], 2 µM (≈ 4.86 µg/mL); in assay [27], 4 µM (≈ 9.72 µg/mL).

As for `CC[C@H](C)[C@H](NC(=O)[C@@H]1CCCN1C(=O)[C@@H]1CCCN1C(=O)[C@H](CCCN=C(N)N)NC(=O)[C@H](Cc1ccccc1)NC(=O)[C@@H]1CCCN1C(=O)[C@@H]1CCCN1C(=O)[C@H](Cc1ccc(O)cc1)NC(=O)[C@H](Cc1ccccc1)NC(=O)[C@@H]1CCCN1C(=O)[C@@H]1CCCN1C(=O)[C@H](CCCN=C(N)N)NC(=O)[C@@H](NC(=O)[C@@H]1CCCN1C(=O)[C@@H]1CCCN1C(=O)[C@H](CCCN=C(N)N)NC(=O)[C@H](CCCN=C(N)N)NC(=O)[C@@H](NC(=O)[C@@H]1CCCN1C(=O)[C@@H]1CCCN1C(=O)[C@H](CCCN=C(N)N)NC(=O)[C@H](Cc1ccccc1)NC(=O)[C@@H](N)CCCN=C(N)N)[C@@H](C)CC)[C@@H](C)CC)C(=O)O` [RFRPPIRRPPIRPPFYPPFRPPI], the MIC in assay [28] is 1 µM (≈ 2.87 µg/mL); in assay [2], 2 µM (≈ 5.74 µg/mL); in assay [29], no less than 32 µM; in assay [30], 2 µM (≈ 5.74 µg/mL); in [14], 32 µM (≈ 91.9 µg/mL); in [3] it was 32 µM (≈ 91.9 µg/mL). Further, the MIC in [11] was 4 µM (≈ 11.5 µg/mL); in assay [5], greater than 64 µM.

With `CC(C)[C@H](N)C(=O)N[C@@H](Cc1c[nH]c2ccccc12)C(=O)N[C@@H](CC(N)=O)C(=O)N[C@@H](CCC(N)=O)C(=O)N1CCC[C@H]1C(=O)N[C@H](C(=O)N[C@@H](CCCN=C(N)N)C(=O)NCC(=O)N[C@@H](Cc1ccccc1)C(=O)N[C@@H](CCCCN)C(=O)N[C@H](C(=O)N[C@@H](Cc1ccc(O)cc1)C(=O)N[C@@H](CCC(=O)O)C(=O)O)C(C)C)C(C)C` [VWNQPVRGFKVYE], the MIC in assay [31], in [32], in [33], in assay [34], in assay [35] and in assay [36] was no less than 50 µM each time.

One may read the MIC as the least concentration at which growth counts as inhibited. Read a low MIC as a more susceptible organism.
